Assay results: ChEMBL document CHEMBL5696441 (Nat Chem Biol, 2011)

How the values were obtained:
[1] = biological target: LIM domain kinase 1 (Homo sapiens) (UniProt P53667); test: Inhibition of LIMK1 (unknown origin) assessed as remaining activity at 1 uM by Kinome scan method relative to control
[2] = biological target: Serine/threonine-protein kinase LATS2 (Homo sapiens) (UniProt Q9NRM7); test: Inhibition of LATS2 (unknown origin) assessed as remaining activity at 1 uM by Kinome scan method relative to control
Serine/threonine-protein kinase LATS2 (Homo sapiens), sequence (Q9NRM7 whole entry): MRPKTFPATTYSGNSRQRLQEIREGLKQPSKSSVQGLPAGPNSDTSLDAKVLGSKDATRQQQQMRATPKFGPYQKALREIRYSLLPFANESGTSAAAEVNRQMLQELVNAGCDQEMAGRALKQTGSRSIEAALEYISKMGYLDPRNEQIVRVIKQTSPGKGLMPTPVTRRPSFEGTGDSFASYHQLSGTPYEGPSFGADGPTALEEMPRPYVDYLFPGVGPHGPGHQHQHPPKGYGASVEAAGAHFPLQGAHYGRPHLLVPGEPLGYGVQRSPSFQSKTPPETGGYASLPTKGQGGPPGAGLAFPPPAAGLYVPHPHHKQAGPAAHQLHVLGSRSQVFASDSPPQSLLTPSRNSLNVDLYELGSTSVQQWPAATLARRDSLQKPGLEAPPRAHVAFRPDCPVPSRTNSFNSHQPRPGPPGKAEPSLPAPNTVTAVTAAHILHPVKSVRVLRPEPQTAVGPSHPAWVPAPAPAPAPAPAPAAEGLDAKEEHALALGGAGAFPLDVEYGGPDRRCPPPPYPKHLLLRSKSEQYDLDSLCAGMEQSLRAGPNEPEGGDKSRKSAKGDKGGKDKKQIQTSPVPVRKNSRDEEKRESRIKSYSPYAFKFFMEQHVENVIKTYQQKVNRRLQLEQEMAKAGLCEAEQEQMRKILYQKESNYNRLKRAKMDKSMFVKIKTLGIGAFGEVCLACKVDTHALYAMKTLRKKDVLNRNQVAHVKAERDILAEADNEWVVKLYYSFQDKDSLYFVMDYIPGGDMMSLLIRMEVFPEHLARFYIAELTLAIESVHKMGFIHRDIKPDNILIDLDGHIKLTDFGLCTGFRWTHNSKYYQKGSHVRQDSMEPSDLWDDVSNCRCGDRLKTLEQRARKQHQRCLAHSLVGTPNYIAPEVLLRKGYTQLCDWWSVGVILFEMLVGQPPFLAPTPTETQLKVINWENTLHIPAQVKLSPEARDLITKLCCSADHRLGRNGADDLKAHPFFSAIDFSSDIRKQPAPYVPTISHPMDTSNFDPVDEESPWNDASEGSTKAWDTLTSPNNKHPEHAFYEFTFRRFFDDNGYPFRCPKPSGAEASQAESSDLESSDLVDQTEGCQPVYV

[3] = biological target: BDNF/NT-3 growth factors receptor (Homo sapiens) (UniProt Q16620); test: Inhibition of TRKB (unknown origin) assessed as remaining activity at 1 uM by Kinome scan method relative to control
[4] = biological target: Mitogen-activated protein kinase kinase kinase kinase 4 (Homo sapiens) (UniProt O95819); test: Inhibition of MAP4K4 (unknown origin) assessed as remaining activity at 1 uM by Kinome scan method relative to control
Mitogen-activated protein kinase kinase kinase kinase 4 (Homo sapiens), sequence (O95819 2-1239 limits assumed): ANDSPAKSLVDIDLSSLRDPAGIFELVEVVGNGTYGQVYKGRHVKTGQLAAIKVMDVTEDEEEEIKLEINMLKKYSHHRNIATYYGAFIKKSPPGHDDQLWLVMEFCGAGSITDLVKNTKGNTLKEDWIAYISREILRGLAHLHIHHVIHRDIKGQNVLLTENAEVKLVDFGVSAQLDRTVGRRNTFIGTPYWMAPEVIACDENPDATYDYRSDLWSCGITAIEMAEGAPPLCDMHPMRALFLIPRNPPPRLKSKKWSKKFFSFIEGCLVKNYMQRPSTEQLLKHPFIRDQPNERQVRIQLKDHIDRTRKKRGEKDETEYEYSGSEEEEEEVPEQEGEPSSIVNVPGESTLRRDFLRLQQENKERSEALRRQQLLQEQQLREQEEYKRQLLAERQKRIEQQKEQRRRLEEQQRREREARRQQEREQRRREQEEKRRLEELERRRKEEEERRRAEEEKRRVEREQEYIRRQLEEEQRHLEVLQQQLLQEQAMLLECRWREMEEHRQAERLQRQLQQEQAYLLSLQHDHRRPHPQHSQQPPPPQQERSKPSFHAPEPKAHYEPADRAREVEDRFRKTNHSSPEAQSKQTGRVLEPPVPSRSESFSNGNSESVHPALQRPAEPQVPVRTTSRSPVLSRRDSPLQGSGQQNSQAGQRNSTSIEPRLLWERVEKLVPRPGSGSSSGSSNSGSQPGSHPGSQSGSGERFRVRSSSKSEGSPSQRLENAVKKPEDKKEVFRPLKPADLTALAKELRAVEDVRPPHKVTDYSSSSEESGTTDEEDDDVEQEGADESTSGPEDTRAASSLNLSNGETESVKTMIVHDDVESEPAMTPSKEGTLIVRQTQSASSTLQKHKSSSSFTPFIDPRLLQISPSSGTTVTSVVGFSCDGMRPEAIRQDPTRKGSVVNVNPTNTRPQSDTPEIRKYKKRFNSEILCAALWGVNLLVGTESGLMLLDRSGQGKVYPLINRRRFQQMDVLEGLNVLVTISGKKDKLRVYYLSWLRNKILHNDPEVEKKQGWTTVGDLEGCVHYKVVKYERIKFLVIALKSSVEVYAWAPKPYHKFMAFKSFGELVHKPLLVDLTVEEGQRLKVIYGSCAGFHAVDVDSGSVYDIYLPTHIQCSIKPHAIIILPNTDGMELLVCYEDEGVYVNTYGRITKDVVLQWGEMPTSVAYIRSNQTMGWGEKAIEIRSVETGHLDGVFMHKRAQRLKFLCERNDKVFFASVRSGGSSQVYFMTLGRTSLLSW

[5] = biological target: T1, Serine/threonine-protein kinase Chk1 (Homo sapiens) (UniProt O14757); test: Inhibition of CHEK1 (unknown origin) assessed as remaining activity at 1 uM by Kinome scan method relative to control
T1 sequence (whole entry): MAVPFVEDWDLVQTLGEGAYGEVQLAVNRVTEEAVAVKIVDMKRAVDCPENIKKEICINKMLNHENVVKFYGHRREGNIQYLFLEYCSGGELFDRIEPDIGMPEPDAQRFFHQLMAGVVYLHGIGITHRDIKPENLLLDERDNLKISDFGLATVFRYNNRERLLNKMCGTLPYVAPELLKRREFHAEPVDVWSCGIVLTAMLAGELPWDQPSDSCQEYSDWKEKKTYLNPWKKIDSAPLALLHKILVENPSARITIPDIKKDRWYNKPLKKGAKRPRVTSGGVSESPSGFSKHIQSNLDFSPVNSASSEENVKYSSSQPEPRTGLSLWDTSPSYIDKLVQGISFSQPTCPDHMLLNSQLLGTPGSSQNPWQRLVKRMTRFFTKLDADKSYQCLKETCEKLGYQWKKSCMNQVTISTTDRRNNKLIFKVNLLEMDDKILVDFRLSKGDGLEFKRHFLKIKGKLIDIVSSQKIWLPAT

[6] = biological target: Death-associated protein kinase 1 (Homo sapiens) (UniProt P53355); test: Inhibition of DAPK1 (unknown origin) assessed as remaining activity at 1 uM by Kinome scan method relative to control
[7] = biological target: Serine/threonine-protein kinase DCLK1 (Homo sapiens) (UniProt O15075); test: Inhibition of DCAMKL1 (unknown origin) assessed as remaining activity at 1 uM by Kinome scan method relative to control
[8] = biological target: Phosphatidylinositol 4,5-bisphosphate 3-kinase catalytic subunit gamma isoform (Homo sapiens) (UniProt P48736); test: Inhibition of PIK3CG (unknown origin) assessed as remaining activity at 1 uM by Kinome scan method relative to control
[9] = biological target: Tyrosine-protein kinase ABL1 (Homo sapiens) (UniProt P00519); test: Inhibition of ABL1 (unknown origin) assessed as remaining activity at 1 uM by Kinome scan method relative to control
[10] = biological target: MAP kinase-activated protein kinase 2 (Homo sapiens) (UniProt P49137); test: Inhibition of MAPKAPK2 (unknown origin) assessed as remaining activity at 1 uM by Kinome scan method relative to control
MAP kinase-activated protein kinase 2 (Homo sapiens), sequence (P49137 whole entry, looked up): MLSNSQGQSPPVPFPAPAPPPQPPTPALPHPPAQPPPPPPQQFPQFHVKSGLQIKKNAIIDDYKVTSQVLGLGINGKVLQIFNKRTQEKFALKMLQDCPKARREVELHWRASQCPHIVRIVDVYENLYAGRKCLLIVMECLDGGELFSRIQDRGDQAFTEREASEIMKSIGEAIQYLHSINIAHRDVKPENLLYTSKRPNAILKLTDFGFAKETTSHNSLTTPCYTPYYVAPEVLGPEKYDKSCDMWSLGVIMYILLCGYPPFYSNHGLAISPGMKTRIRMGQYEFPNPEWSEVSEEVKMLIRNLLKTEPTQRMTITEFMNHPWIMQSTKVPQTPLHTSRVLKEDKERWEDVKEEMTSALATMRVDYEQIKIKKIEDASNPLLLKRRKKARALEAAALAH

[11] = biological target: Membrane-associated tyrosine- and threonine-specific cdc2-inhibitory kinase (Homo sapiens) (UniProt Q99640); test: Inhibition of PKMYT1 (unknown origin) assessed as remaining activity at 1 uM by Kinome scan method relative to control
Membrane-associated tyrosine- and threonine-specific cdc2-inhibitory kinase (Homo sapiens), sequence (Q99640 whole entry): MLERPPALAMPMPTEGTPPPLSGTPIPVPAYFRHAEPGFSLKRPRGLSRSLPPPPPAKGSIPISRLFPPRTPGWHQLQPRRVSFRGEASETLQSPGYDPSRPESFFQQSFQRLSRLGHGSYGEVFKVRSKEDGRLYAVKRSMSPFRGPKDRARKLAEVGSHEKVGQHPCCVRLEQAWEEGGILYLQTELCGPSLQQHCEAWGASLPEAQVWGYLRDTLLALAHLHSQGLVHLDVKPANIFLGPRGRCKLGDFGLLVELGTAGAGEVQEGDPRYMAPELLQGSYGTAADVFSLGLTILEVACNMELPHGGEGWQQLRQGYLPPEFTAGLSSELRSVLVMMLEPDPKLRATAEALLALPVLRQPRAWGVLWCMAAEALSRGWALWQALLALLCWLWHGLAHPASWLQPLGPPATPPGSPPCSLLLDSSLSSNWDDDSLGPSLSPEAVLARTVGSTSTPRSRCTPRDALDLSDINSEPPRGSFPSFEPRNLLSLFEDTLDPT

[12] = biological target: Dual specificity mitogen-activated protein kinase kinase 6 (Homo sapiens) (UniProt P52564); test: Inhibition of MEK6 (unknown origin) assessed as remaining activity at 1 uM by Kinome scan method relative to control
Dual specificity mitogen-activated protein kinase kinase 6 (Homo sapiens), sequence (P52564 whole entry): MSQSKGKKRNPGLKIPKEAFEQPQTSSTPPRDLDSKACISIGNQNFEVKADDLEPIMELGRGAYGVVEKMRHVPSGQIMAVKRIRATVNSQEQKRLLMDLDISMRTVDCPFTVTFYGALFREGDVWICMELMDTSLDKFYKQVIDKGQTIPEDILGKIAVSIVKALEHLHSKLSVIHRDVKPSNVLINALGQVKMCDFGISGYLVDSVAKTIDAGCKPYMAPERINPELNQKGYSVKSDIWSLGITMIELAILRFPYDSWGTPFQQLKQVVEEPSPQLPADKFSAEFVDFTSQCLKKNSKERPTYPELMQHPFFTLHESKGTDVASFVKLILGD

[13] = biological target: SRSF protein kinase 2 (Homo sapiens) (UniProt P78362); test: Inhibition of SRPK2 (unknown origin) assessed as remaining activity at 1 uM by Kinome scan method relative to control
[14] = biological target: Serine/threonine-protein kinase 35 (Homo sapiens) (UniProt Q8TDR2); test: Inhibition of STK35 (unknown origin) assessed as remaining activity at 1 uM by Kinome scan method relative to control
Serine/threonine-protein kinase 35 (Homo sapiens), sequence (Q8TDR2 whole entry): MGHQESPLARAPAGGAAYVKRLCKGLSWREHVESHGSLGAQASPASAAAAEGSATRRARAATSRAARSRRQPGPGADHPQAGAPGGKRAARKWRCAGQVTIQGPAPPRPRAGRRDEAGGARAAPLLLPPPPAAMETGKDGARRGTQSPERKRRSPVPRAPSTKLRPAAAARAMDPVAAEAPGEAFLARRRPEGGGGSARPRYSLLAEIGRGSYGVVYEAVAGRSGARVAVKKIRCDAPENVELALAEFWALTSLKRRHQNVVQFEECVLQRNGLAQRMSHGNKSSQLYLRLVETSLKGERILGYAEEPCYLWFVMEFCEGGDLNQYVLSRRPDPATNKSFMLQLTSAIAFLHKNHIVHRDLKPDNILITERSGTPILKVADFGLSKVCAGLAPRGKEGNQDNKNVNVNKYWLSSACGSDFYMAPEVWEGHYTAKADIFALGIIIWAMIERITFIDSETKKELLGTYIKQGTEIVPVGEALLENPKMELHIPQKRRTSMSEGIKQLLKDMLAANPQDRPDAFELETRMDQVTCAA

[15] = biological target: Serine/threonine-protein kinase 26 (Homo sapiens) (UniProt Q9P289); test: Inhibition of MST4 (unknown origin) assessed as remaining activity at 1 uM by Kinome scan method relative to control
Serine/threonine-protein kinase 26 (Homo sapiens), sequence (Q9P289 2-416 limits assumed): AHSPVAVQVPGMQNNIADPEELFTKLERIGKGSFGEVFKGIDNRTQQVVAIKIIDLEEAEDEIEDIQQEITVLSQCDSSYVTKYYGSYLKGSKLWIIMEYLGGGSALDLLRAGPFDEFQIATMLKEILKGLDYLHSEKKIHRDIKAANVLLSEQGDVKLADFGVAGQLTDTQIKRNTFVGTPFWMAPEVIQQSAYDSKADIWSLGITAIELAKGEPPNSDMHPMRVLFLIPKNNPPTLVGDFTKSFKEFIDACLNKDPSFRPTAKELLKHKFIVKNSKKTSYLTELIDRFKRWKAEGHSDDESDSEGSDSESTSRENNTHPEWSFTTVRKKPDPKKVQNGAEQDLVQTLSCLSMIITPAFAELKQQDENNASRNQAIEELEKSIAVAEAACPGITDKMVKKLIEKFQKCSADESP

[16] = biological target: T2, Serine/threonine-protein kinase 17A (Homo sapiens) (UniProt Q9UEE5); test: Inhibition of DRAK1 (unknown origin) assessed as remaining activity at 1 uM by Kinome scan method relative to control
T2 sequence (whole entry): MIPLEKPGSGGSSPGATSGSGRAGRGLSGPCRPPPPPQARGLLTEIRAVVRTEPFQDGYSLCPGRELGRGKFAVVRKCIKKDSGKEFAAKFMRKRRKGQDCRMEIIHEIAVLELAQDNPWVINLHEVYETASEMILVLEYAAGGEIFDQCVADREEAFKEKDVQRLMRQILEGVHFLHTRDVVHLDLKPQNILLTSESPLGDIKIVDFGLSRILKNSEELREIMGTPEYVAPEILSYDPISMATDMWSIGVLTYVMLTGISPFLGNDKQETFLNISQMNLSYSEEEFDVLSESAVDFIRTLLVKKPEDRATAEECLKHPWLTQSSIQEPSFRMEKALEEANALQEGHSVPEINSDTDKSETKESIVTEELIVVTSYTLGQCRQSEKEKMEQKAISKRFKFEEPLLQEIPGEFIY

Homo sapiens = species on record: Homo sapiens; test: Inhibition of ACVR1a (unknown origin) assessed as remaining activity at 1 uM by Kinome scan method relative to control
[17] = biological target: T3, Mitogen-activated protein kinase 12 (Homo sapiens) (UniProt P53778); test: Inhibition of P38gamma (unknown origin) assessed as remaining activity at 1 uM by Kinome scan method relative to control
T3 sequence (whole entry): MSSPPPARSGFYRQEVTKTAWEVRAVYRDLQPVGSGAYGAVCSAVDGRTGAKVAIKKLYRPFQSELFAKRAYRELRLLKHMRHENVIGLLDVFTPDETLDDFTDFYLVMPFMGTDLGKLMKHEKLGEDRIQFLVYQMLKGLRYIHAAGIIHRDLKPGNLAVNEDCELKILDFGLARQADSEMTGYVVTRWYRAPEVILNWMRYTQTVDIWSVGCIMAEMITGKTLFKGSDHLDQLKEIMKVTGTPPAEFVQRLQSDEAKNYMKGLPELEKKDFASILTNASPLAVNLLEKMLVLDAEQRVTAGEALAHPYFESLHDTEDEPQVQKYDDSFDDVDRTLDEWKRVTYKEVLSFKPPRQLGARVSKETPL

[18] = biological target: Cyclin-dependent kinase 17 (Homo sapiens) (UniProt Q00537); test: Inhibition of PCTK2 (unknown origin) assessed as remaining activity at 1 uM by Kinome scan method relative to control
Cyclin-dependent kinase 17 (Homo sapiens), sequence (Q00537 whole entry, looked up): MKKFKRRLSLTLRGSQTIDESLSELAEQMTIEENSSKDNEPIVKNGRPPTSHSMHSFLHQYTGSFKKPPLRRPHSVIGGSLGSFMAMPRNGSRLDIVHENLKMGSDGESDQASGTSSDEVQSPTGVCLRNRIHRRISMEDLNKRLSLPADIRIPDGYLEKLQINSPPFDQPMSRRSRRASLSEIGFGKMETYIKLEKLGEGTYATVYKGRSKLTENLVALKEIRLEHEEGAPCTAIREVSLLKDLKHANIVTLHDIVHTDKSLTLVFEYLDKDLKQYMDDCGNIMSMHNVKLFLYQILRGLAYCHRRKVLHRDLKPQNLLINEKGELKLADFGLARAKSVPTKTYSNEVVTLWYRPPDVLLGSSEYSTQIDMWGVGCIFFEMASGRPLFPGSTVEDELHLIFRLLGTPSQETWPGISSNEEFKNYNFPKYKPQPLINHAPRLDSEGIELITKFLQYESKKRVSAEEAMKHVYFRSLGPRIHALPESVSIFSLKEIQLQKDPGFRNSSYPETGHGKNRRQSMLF

Structure (SMILES): Nc1ccccc1Nc1ccc2c(c1)CCc1ccccc1C2=O
- Activity [1]: 96%
- Activity [2]: 77%
- Activity [3]: 85%
- Activity [4]: 94%
- Activity [5]: 86%
- Activity [6]: 95%
- Activity [7]: 92%
- Activity [8]: 86%
- Activity [9]: 84%
- Activity [10]: 96%
- Activity [11]: 64%
- Activity [12]: 76%
- Activity [13]: 79%
- Activity [14]: 80%
- Activity [15]: 96%
- Activity [16]: 92%
- Activity (Homo sapiens): 98%
- Activity [17]: 98%
- Activity [18]: 93%

Structure (SMILES): O=C1c2ccc(Nc3ccc(F)cc3F)cc2CCc2ccc(OC[C@H](O)CO)cc21 [Skepinone-L]
- Activity [1]: 86%
- Activity [2]: 94%
- Activity [3]: 100%
- Activity [4]: 100%
- Activity [5]: 94%
- Activity [6]: 100%
- Activity [7]: 97%
- Activity [8]: 100%
- Activity [9]: 94%
- Activity [10]: 94%
- Activity [11]: 85%
- Activity [12]: 82%
- Activity [13]: 95%
- Activity [14]: 95%
- Activity [15]: 100%
- Activity [16]: 100%
- Activity (Homo sapiens): 98%
- Activity [17]: 88%
- Activity [18]: 89%
